Assay results as given in patent US8030300B2, “Ligands for nicotinic acetylcholine receptors, and methods of making and using them” (priority 2003, dated 2011).
Where two headings read alike, the source gives them in different places.

Key:
Experiment in all cases: biochemical
Assay type in all cases: binding
α4β4 nAChR subtype = target: T1, α4β4 nAChR subtype (Rattus norvegicus, UniProt P09483+P12392)
T1 construct: expressed in transfected cells
From the text: (§1) In order to assess the steric and hydropathic effects of the C-5 substituents of the pyridine on the binding affinity and subtype-selectivity at neuronal nicotinic acetylcholine receptors. […] The binding affinity ratios for a ligand, calculated from its affinities at an α subunit paired with either the β2 osubunit or the β4 subunit, represents a measure of the selectivity of that ligand with regard to the β subunits.

α3β2 nAChR subtype = target: T2, α3β2 nAChR subtype (Rattus norvegicus, UniProt P04757+P12390)
T2 construct: expressed in transfected cells
T2 sequence (P12390 25-500): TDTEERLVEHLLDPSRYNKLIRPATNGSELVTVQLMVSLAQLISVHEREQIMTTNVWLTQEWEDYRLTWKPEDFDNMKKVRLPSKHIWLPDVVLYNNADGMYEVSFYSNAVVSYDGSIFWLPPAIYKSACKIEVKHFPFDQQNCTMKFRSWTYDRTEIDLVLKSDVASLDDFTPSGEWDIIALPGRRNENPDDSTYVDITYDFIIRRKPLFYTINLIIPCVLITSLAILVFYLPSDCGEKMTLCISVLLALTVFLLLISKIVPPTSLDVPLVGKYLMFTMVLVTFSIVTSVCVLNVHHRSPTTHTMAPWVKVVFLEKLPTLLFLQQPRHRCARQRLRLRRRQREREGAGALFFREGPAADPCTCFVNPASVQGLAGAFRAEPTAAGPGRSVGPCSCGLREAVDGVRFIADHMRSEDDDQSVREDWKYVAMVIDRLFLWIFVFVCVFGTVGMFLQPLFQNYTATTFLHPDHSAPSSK
T2 sequence (P04757 26-499): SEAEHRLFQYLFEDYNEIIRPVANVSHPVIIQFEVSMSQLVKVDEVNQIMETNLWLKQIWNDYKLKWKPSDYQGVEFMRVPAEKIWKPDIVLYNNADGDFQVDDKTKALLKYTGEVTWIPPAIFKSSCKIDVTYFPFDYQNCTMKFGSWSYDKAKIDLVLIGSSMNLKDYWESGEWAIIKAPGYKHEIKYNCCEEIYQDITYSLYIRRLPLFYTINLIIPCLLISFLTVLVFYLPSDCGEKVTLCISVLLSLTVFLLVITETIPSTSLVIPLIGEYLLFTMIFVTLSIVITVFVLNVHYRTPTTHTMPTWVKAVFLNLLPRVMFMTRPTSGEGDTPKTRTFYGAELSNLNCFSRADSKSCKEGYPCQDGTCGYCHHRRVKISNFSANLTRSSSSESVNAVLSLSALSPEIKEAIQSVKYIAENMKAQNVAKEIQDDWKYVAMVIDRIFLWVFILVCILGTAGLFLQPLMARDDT
From the text: as §1

α2β4 nAChR subtype = target: T3, α2β4 nAChR subtype (Rattus norvegicus, UniProt P12389+P12392)
T3 construct: expressed in transfected cells
T3 sequence (P12389 28-511): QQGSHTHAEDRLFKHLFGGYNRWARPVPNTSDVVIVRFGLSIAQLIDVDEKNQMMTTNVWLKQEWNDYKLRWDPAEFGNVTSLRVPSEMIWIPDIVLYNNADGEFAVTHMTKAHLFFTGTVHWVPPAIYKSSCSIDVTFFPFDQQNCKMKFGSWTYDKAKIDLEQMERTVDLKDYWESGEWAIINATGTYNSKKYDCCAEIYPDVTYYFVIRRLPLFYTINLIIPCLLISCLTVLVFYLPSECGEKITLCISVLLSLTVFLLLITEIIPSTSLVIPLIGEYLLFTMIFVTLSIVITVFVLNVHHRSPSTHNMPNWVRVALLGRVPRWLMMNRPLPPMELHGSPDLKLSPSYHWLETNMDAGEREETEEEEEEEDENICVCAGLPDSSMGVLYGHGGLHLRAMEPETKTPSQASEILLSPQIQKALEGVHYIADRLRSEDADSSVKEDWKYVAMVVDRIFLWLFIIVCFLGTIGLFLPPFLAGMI
T3 sequence (P12392 21-495): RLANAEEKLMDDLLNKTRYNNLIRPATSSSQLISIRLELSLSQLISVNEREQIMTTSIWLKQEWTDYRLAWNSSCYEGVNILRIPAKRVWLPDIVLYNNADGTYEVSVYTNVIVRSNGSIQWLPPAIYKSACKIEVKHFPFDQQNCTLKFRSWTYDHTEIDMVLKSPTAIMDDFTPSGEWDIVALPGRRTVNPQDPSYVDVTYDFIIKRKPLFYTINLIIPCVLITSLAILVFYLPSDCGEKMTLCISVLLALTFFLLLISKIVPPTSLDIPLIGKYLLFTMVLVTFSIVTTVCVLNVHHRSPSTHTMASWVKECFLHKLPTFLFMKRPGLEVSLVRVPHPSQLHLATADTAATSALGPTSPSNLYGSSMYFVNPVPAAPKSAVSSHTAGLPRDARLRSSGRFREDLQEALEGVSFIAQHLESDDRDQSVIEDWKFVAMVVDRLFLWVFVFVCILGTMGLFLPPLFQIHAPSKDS
From the text: as §1

α3β4 nAChR subtype = target: T4, α3β4 nAChR subtype (Rattus norvegicus, UniProt P04757+P12392)
T4 construct: expressed in transfected cells
T4 sequence (P04757 26-499): as the sequence (P04757 26-499) above
T4 sequence (P12392 21-495): as the sequence (P12392 21-495) above
From the text: as §1

α4β2 nAChR subtype = target: T5, α4β2 nAChR subtype (Rattus norvegicus, UniProt P09483+P12390)
T5 construct: expressed in transfected cells
T5 sequence (P12390 25-500): as the sequence (P12390 25-500) above
T5 sequence (P09483 31-630): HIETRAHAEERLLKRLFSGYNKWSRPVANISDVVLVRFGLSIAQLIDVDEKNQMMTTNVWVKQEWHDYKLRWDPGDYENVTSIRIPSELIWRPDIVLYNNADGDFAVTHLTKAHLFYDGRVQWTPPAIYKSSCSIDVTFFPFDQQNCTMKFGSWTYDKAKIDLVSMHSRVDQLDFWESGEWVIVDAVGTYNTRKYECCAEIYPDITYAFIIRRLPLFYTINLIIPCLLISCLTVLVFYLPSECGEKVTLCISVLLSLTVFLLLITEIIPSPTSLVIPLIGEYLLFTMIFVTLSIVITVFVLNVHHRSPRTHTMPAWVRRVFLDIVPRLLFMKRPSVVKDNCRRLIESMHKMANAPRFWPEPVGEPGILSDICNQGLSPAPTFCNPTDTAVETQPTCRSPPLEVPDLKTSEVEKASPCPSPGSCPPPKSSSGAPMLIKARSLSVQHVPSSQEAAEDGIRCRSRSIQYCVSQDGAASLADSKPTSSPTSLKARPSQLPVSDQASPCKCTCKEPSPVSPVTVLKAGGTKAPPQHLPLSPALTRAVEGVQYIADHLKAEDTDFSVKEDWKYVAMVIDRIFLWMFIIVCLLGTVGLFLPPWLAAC
From the text: as §1

α2β2 nAChR subtype = target: T6, α2β2 nAChR subtype (Rattus norvegicus, UniProt P12389+P12390)
T6 construct: expressed in transfected cells
T6 sequence (P12390 25-500): as the sequence (P12390 25-500) above
T6 sequence (P12389 28-511): as the sequence (P12389 28-511) above
From the text: as §1

[1] = target: T7, receptors in rat forebrain (mainly α4β2) (Rattus norvegicus, UniProt P09483+P12390)
T7 construct: from tissue; host or cells: rat forebrain homogenate
T7 sequence (P09483 31-630): as the sequence (P09483 31-630) above
T7 sequence (P12390 25-500): as the sequence (P12390 25-500) above
From the text: as §1
In Vitro Inhibition of ^3H-Epibatidin Binding
The high affinity binding site for ^3H-epibatidin is most certainly binding to the α4β2 subtype of nicotinic receptors. The identity of the low affinity site is still believed to be unknown.
Tissue preparation: Preparations may be performed at 0-4° C. unless otherwise indicated. […] The tissue suspension may then be centrifuged at 27,000×g for 10 min. The supernatant is then discarded and the pellet may then be washed three times by centrifugation at 27,000×g for 10 min in 20 mL fresh buffer, and the final pellet may be resuspended in fresh buffer (400 mL per g of original tissue) and used for binding assays.
Assay: Aliquots of 2.0 mL homogenate may be added to 0.100 mL of test solution and 0.100 mL of ^3H-epibatidin (0.3 nM, final concentration), mixed and incubated for 60 min at room temperature. […] The amount of radioactivity on the filters may be determined by conventional liquid scintillation counting. Specific binding is total binding minus non-specific binding.

[2] = Ki α4β4, Table 5, rat nAChR subtypes
[3] = Ki α3β2, Table 5, rat nAChR subtypes
[4] = Ki α2β4, Table 5, rat nAChR subtypes
[5] = Ki α3β4, Table 5, rat nAChR subtypes
[6] = Ki α2β2, Table 5, rat nAChR subtypes
[7] = Ki α4β4, Table 4, bivalent analogues
[8] = Ki α3β2, Table 4, bivalent analogues
[9] = Ki α2β4, Table 4, bivalent analogues
[10] = Ki α3β4, Table 4, bivalent analogues
[11] = Ki α4β2, Table 4, bivalent analogues
[12] = Ki α2β2, Table 4, bivalent analogues

T1 sequence (P12392 21-495): as the sequence (P12392 21-495) above
T1 sequence (P09483 31-630): as the sequence (P09483 31-630) above

## O=c1cccc2n1C[C@H]1C[C@@H]2CN(CCCN2C[C@@H]3C[C@H](C2)c2cccc(=O)n2C3)C1 [ZW-18]
α4β4 nAChR subtype
  Ki: 746 nM
α3β2 nAChR subtype
  Ki: > 1000 nM
α2β4 nAChR subtype
  Ki: 3480 nM
α3β4 nAChR subtype
  Ki: > 10000 nM
α4β2 nAChR subtype
  Ki: 468 nM
α2β2 nAChR subtype
  Ki: 318 nM
[1]
  Ki: 936 nM

## O[C@H]1C[C@H]2N[C@@H]1C[C@@H]2c1ccc(Cl)nc1 (relative stereo) [Ligand 6, 2-exo-(2-Chloro-5-pyridyl)-5-exo-hydroxyl-7-azabicyclo[2.2.1]heptane]
α4β4 nAChR subtype; [2]
  Ki: 72.7 nM
α3β2 nAChR subtype; [3]
  Ki: 19.3 nM
α2β4 nAChR subtype; [4]
  Ki: 67.5 nM
α3β4 nAChR subtype; [5]
  Ki: 224 nM
α2β2 nAChR subtype; [6]
  Ki: 16.9 nM
[1]; Ki α4β2*, Table 5, *Rat forebrain, mainly α4β2
  Ki: 69 nM

## CC(N)C#Cc1cncc(OC[C@@H]2CCCN2C)c1 (some centres unmarked) [ZW-99]
α4β4 nAChR subtype
  Ki: 6130 nM
α3β2 nAChR subtype
  Ki: 47.4 nM
α2β4 nAChR subtype
  Ki: 7400 nM
α3β4 nAChR subtype
  Ki: 127000 nM
α4β2 nAChR subtype
  Ki: 7.18 nM
α2β2 nAChR subtype
  Ki: 7.52 nM
[1]
  Ki: 41.4 nM

## OC1CC2CC(c3ccc(Cl)nc3)C1N2 (racemic) [Ligand 9]
α4β4 nAChR subtype; read-out: Ki α4β4
  Ki: 5.57 nM
α3β2 nAChR subtype; read-out: Ki α3β2
  Ki: 1.36 nM
α2β4 nAChR subtype; read-out: Ki α2β4
  Ki: 5.85 nM
α3β4 nAChR subtype; read-out: Ki α3β4
  Ki: 27.3 nM
α4β2 nAChR subtype; read-out: Ki α4β2
  Ki: 0.92 nM
α2β2 nAChR subtype; read-out: Ki α2β2
  Ki: 1.53 nM

## O=C1CC2CC(c3ccc(Cl)nc3)C1N2 (racemic) [Ligand 5]
α4β4 nAChR subtype; read-out: Ki α4β4
  Ki: 3560 nM
α3β2 nAChR subtype; read-out: Ki α3β2
  Ki: 1500 nM
α2β4 nAChR subtype; read-out: Ki α2β4
  Ki: 3240 nM
α3β4 nAChR subtype; read-out: Ki α3β4
  Ki: 8870 nM
α4β2 nAChR subtype; read-out: Ki α4β2
  Ki: 2020 nM
α2β2 nAChR subtype; read-out: Ki α2β2
  Ki: 1010 nM

## C#Cc1cncc([C@@H]2CCCN2C)c1 [SIB-1508Y, reference compound]
α4β4 nAChR subtype; read-out: Ki α4β4
  Ki: 3240 nM
α3β2 nAChR subtype; read-out: Ki α3β2
  Ki: 1890 nM
α2β4 nAChR subtype; read-out: Ki α2β4
  Ki: 1140 nM
α3β4 nAChR subtype; read-out: Ki α3β4
  Ki: 4430 nM
α4β2 nAChR subtype; read-out: Ki α4β2
  Ki: 7080 nM
α2β2 nAChR subtype; read-out: Ki α2β2
  Ki: 642 nM

## Clc1ccc(C2CC3CCC2N3CCCCCCN2C3CCC2C(c2ccc(Cl)nc2)C3)cn1 (centres unmarked) [Ligand 59c]
α4β4 nAChR subtype; [7]
  Ki: 31.9 nM
α3β2 nAChR subtype; [8]
  Ki: 6.6 nM
α2β4 nAChR subtype; [9]
  Ki: 37.4 nM
α3β4 nAChR subtype; [10]
  Ki: 64.7 nM
α4β2 nAChR subtype; [11]
  Ki: 7.2 nM
α2β2 nAChR subtype; [12]
  Ki: 4.1 nM

## O[C@H]1[C@H](c2ccc(Cl)nc2)[C@H]2CC[C@@H]1N2 (relative stereo) [Ligand 3]
α4β4 nAChR subtype; Ki α4β4
  Ki: 11.2 nM
α3β2 nAChR subtype; Ki α3β2
  Ki: 7.3 nM
α2β4 nAChR subtype; Ki α2β4
  Ki: 15.3 nM
α3β4 nAChR subtype; Ki α3β4
  Ki: 39.1 nM
α4β2 nAChR subtype; Ki α4β2
  Ki: 2.9 nM
α2β2 nAChR subtype; Ki α2β2
  Ki: 2.5 nM

## Clc1ccc(C2CC3CCC2N3CCCN2C3CCC2C(c2ccc(Cl)nc2)C3)cn1 (centres unmarked) [Ligand 59b]
α4β4 nAChR subtype; [7]
  Ki: 23.3 nM
α3β2 nAChR subtype; [8]
  Ki: 5.2 nM
α2β4 nAChR subtype; [9]
  Ki: 15.7 nM
α3β4 nAChR subtype; [10]
  Ki: 62.9 nM
α4β2 nAChR subtype; [11]
  Ki: 8.7 nM
α2β2 nAChR subtype; [12]
  Ki: 6.1 nM

## Clc1ccc(C2CC3CCC2N3CCCCCCCCCCN2C3CCC2C(c2ccc(Cl)nc2)C3)cn1 (centres unmarked) [Ligand 59d]
α4β4 nAChR subtype; [7]
  Ki: 18.7 nM
α3β2 nAChR subtype; [8]
  Ki: 6.8 nM
α2β4 nAChR subtype; [9]
  Ki: 24.2 nM
α3β4 nAChR subtype; [10]
  Ki: 67.7 nM
α4β2 nAChR subtype; [11]
  Ki: 10.3 nM
α2β2 nAChR subtype; [12]
  Ki: 5.8 nM

## Clc1ccc(C2CC3CCC2N3CCN2C3CCC2C(c2ccc(Cl)nc2)C3)cn1 (centres unmarked) [Ligand 59a]
α4β4 nAChR subtype; [7]
  Ki: 18 nM
α3β2 nAChR subtype; [8]
  Ki: 5.6 nM
α2β4 nAChR subtype; [9]
  Ki: 2.9 nM
α3β4 nAChR subtype; [10]
  Ki: 11.8 nM
α4β2 nAChR subtype; [11]
  Ki: 10.7 nM
α2β2 nAChR subtype; [12]
  Ki: 1.3 nM

## OCCCCC#Cc1cncc(OC[C@@H]2CCN2)c1 [Ligand 26, 5-(6-Hydroxy-1-hexynyl)-3-(2(S)-azetidinylmethoxy)pyridine]
α4β4 nAChR subtype; [2]
  Ki: 74 nM
α3β2 nAChR subtype; [3]
  Ki: 0.53 nM
α2β4 nAChR subtype; [4]
  Ki: 269 nM
α3β4 nAChR subtype; [5]
  Ki: 4840 nM
α4β2 nAChR subtype; Ki α4β2, Table 5, rat nAChR subtypes
  Ki: 0.09 nM
α2β2 nAChR subtype; [6]
  Ki: 0.06 nM
